# Columns and labels:
# Assay in all cases: relative viability (nuclei count vs DMSO), 5 days (fraction); higher = more cells survive
# [1] = compound: Cc1nc(Nc2ncc(C(=O)Nc3c(C)cccc3Cl)s2)cc(N2CCN(CCO)CC2)n1 [Dasatinib] + CS(=O)(=O)N1CCN(Cc2cc3nc(-c4cccc5[nH]ncc45)nc(N4CCOCC4)c3s2)CC1 [Pictilisib] (partner 1 µM)
# How it was run: (§1)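 Relative viability equals treated-well nuclei counts divided by vehicle-well nuclei counts. Counts came from 4× images of lung cancer cell lines grown in 1536-well plates for 5 days after pin-tool dosing on the day after seeding. Dosing used one drug alone or a fixed anchor-drug dose plus five library-drug doses (not always all listed) in √10 steps, and values are medians of duplicate plates.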
# [2] = compound: Cc1nc(Nc2ncc(C(=O)Nc3c(C)cccc3Cl)s2)cc(N2CCN(CCO)CC2)n1 [Dasatinib] + NC(=O)Nc1cc(-c2cccc(F)c2)sc1C(=O)N[C@H]1CCCNC1 [AZD7762] (partner 0.2 µM)
# How it was run: as §1
# [3] = compound: Cc1ccc(C(=O)Nc2cccc(C(F)(F)F)c2)cc1Nc1cncc(C(N)=O)c1 [ALW-II-49-7] + O=C(c1cc(Cc2n[nH]c(=O)c3ccccc23)ccc1F)N1CCN(C(=O)C2CC2)CC1 [Olaparib] (partner 8 µM)
# How it was run: as §1
# [4] = compound: Cc1ccc(C(=O)Nc2cccc(C(F)(F)F)c2)cc1Nc1cncc(C(N)=O)c1 [ALW-II-49-7] + CC(=O)c1c(C)c2cnc(Nc3ccc(N4CCNCC4)cn3)nc2n(C2CCCC2)c1=O [Palbociclib] (partner 0.5 µM)
# How it was run: as §1
Cell Line,relative viability ([1]; first compound 0.005 µM),relative viability ([1]; first compound 0.01581 µM),relative viability ([1]; first compound 0.05 µM),relative viability ([1]; first compound 0.1581 µM),relative viability ([1]; first compound 0.5 µM),relative viability ([2]; first compound 0.005 µM),relative viability ([2]; first compound 0.01581 µM),relative viability ([2]; first compound 0.05 µM),relative viability ([2]; first compound 0.1581 µM),relative viability ([2]; first compound 0.5 µM),relative viability ([3]; first compound 0.08 µM),relative viability ([3]; first compound 0.253 µM),relative viability ([3]; first compound 0.8 µM),relative viability ([3]; first compound 2.53 µM),relative viability ([3]; first compound 8 µM),relative viability ([4]; first compound 0.08 µM),relative viability ([4]; first compound 0.253 µM),relative viability ([4]; first compound 0.8 µM),relative viability ([4]; first compound 2.53 µM),relative viability ([4]; first compound 8 µM)
201T,0.664,0.517,0.627,0.521,0.383,0.848,0.635,0.493,0.455,0.302,0.846,0.844,0.844,0.873,0.69,0.362,0.361,0.376,0.329,0.347
A549,0.388,0.257,0.3,0.134,0.0986,–,–,–,–,–,0.407,0.368,0.222,0.344,0.263,–,–,–,–,–
A-427,0.705,0.674,0.663,0.511,0.461,0.72,0.745,0.536,0.52,0.519,0.673,0.831,0.81,0.672,0.71,0.491,0.523,0.556,0.561,0.51
ABC-1,0.937,0.625,0.659,0.644,0.506,0.74,0.689,0.758,0.747,0.383,0.636,0.828,0.744,0.838,0.921,0.48,0.647,0.59,0.665,0.711
BEN,0.446,0.37,0.323,0.297,0.294,0.747,0.558,0.483,0.402,0.43,1.12,1.11,1.18,0.548,0.98,0.468,0.452,0.482,0.439,0.481
CAL-12T,0.303,0.586,0.337,0.223,0.128,0.637,0.584,0.681,0.613,0.538,0.797,0.644,0.773,0.753,0.719,0.381,0.423,0.46,0.411,0.365
COR-L23,0.714,0.608,0.744,0.34,0.207,–,–,–,–,–,0.327,0.343,0.327,0.313,0.292,0.276,0.271,0.245,0.274,0.259
COR-L 105,0.359,0.383,0.316,0.308,0.245,–,–,–,–,–,0.646,0.626,0.781,0.663,0.578,0.391,0.333,0.41,0.421,0.423
Calu-6,0.732,0.65,0.742,0.604,0.527,–,–,–,–,–,0.588,0.521,0.576,0.45,0.417,–,–,–,–,–
ChaGo-K-1,0.435,0.761,0.774,0.649,0.626,0.854,0.77,0.822,0.705,0.549,0.384,0.427,0.394,0.411,0.39,0.949,0.98,0.954,0.887,0.98
EBC-1,0.329,0.231,0.216,0.181,0.204,–,–,–,–,–,0.724,0.794,0.676,0.646,0.688,–,–,–,–,–
EKVX,0.449,0.231,0.338,0.181,0.101,0.684,0.663,0.515,0.221,0.172,0.77,0.847,0.823,0.374,0.855,0.454,0.344,0.413,0.278,0.359
EMC-BAC-2,0.455,0.344,0.327,0.243,0.185,1.05,1.03,0.776,0.591,0.391,0.482,0.475,0.445,0.396,0.367,0.499,0.519,0.488,0.437,0.391
EPLC-272H,0.312,0.354,0.276,0.221,0.147,0.222,0.245,0.173,0.125,0.147,0.609,0.468,0.506,0.711,0.64,0.273,0.319,0.317,0.346,0.343
H3255,0.474,0.446,0.342,0.234,0.152,0.899,0.856,0.832,0.686,0.372,0.516,0.549,0.492,0.537,0.477,0.309,0.314,0.322,0.28,0.295
HARA,0.204,0.259,0.346,0.157,0.0728,0.31,0.129,0.298,0.291,0.184,0.556,0.584,0.551,0.626,1.07,0.239,0.265,0.249,0.261,0.254
HCC-15,0.69,0.567,0.681,0.486,0.502,1.37,1.12,1.07,0.897,0.585,0.757,0.689,0.719,0.577,0.648,0.729,0.722,0.704,0.712,0.68
HCC-44,0.517,0.392,0.39,0.291,0.148,1.07,0.992,1.19,1.33,1.1,0.928,1.04,0.995,0.957,0.935,0.961,1.02,0.972,0.871,0.864
